Laboratory results reported in publication PMC8770581 (ChemMedChem, 2021).
“Also recorded” adds a separate entry of the source. Read-outs that look alike come from different tables or passages of the source.

What was measured:
[1] = biological target: T1, α-syn fibrils (Homo sapiens, UniProt P37840); assay: Fluorescent properties of ligand-α-syn fibril complex; format: physicochemical
[2] = biological target: Aβ (1–40) fibrils (Homo sapiens, UniProt P05067); assay: Aβ fibril/ligand saturation binding assay
Aβ (1–40) fibrils, sequence (P05067 672-711): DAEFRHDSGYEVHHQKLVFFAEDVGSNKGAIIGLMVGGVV

[3] = biological target: T1, α-syn fibrils; assay: α-Synuclein fibril/ligand saturation binding assay; settings: for Kd: Kd α-syn, mean ± SD (n = 3); for Selectivity α-syn v/s Aβ: from Kd Aβ and Kd α-syn; for selectivity for α-syn fibrils compared with amyloid-β (Aβ) and tau fibrils: abstract
[4] = Absorption/emission maxima and fluorescence quantum yield of free ligand in PBS; format: physicochemical; settings: for Absmax / Emmax: free ligand in PBS
[5] = biological target: T2, Aβ fibrils (Homo sapiens, UniProt P05067); assay: Fluorescent properties of ligand-Aβ fibril complex; format: physicochemical
T2 sequence (P05067 672-711): as above

[6] = biological target: T1, α-syn fibrils; settings: read-out: Kd α-syn; fibril saturation binding; cited from earlier work
[7] = biological target: T2, Aβ fibrils; settings: read-out: Kd Aβ; fibril saturation binding; cited from earlier work
[8] = biological target: tau fibrils (Tau-441, 2N4R) (Homo sapiens, UniProt P10636); assay: Tau fibril/ligand saturation binding assay; settings: for α-syn versus tau binding selectivity: from Kd tau and Kd α-syn
tau fibrils (Tau-441, 2N4R), sequence (P10636 1-441 isoform P10636-8): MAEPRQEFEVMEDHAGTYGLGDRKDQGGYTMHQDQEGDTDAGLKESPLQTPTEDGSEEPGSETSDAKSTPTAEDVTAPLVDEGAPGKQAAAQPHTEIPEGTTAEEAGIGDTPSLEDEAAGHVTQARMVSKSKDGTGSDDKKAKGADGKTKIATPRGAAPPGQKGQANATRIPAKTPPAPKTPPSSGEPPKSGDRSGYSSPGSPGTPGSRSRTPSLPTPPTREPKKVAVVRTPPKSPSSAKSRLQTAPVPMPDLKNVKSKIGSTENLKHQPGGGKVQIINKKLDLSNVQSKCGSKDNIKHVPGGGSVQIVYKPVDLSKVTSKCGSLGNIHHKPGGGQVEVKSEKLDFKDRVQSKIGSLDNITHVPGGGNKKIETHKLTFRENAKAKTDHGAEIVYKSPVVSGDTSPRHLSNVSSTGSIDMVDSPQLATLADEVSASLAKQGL

[9] = biological target: Aβ plaques in human AD brain tissue (Homo sapiens, UniProt P05067); assay: Fluorescent staining of human AD brain tissue sections; settings: cortical sections, co-stained with antibody 4G8
Aβ plaques in human AD brain tissue, sequence (P05067 672-711 limits assumed): as the sequence (P05067 672-711) above

[10] = Table 1, synthetic α-syn fibrils 2.5 μM, 1 hour
[11] = Table 3 and text, α-syn fibrils, saturation binding

Absmax Ligand + α-syn [1]	Emmax Ligand + α-syn [1]	Fluorescence quantum yield Ligand + α-syn [1]	Kd [2] [nM]	Kd [3, 10] [nM]	Kd [3, 11] [nM]	Selectivity α-syn v/s Aβ [3] [x]	Fluorescence quantum yield Free ligand [4]	Absmax [4]	Emmax [4]	Absmax Ligand + Aβ [5]	Emmax Ligand + Aβ [5]	Fluorescence quantum yield Ligand + Aβ [5]	Kd [8] [nM]	α-syn versus tau binding selectivity [8] [x]	selectivity for α-syn fibrils compared with amyloid-β (Aβ) and tau fibrils [3]	SMILES	Kd [6] [nM]	Kd [7] [nM]	labeling of Aβ pathology in AD brain sections [9]
425	601	0.0878	337 ± 11.7	74.2 ± 14.3	74.2 ± 14.3	4.5	0.0097	414	556	437	595	0.2058				O=C(O)c1ccc(-c2ccc(/C=C/C=C3C(=O)c4ccccc4C3=O)cc2)s1 [compound 35, (E)-5-(4-(3-(1,3-Dioxo-1,3-dihydro-2H-inden-2-ylidene)prop-1-en-1-yl)phenyl)thiophene-2-carboxylic acid]			
439	589	0.0435	257 ± 20.3	93.1 ± 13.8	93.1 ± 13.8	2.8	0.0031	403	575	448	586	0.1377				COc1cc(-c2ccc(/C=C3/Cc4ccccc4C3=O)s2)ccc1O [compound 39, (Z)-2-((5-(4-Hydroxy-3-methoxyphenyl)thiophen-2-yl)methylene)-2,3-dihydro-1H-inden-1-one]			
																CN(C)c1ccc(-c2cc(-c3ccnc(Br)c3)[nH]n2)cc1 [[^11C]MODAG-001]	0.6 ± 0.1	20 ± 10	
			393 ± 64.4				0.0063	431	524	446	556	0.1074				O=C1/C(=C\c2ccc(-c3ccc(CO)cc3)s2)Cc2ccccc21 [compound 37, (Z)-2-((5-(4-(Hydroxymethyl)phenyl)thiophen-2-yl)methylene)-2,3-dihydro-1H-inden-1-one]			
446	585	0.078	140 ± 4.2	9 ± 0.5	9 ± 0.5	15.6	0.0079	405	542	441	579	0.1363	388 ± 38.2	43	greater than 10 x	COc1cc(/C=C/C=C2\Cc3ccccc3C2=O)ccc1O [compound 8, (E)-2-((E)-3-(4-Hydroxy-3-methoxyphenyl)allylidene)-2,3-dihydro-1H-inden-1-one]			mostly dense core Aβ plaques in the ligand channel (column II) but not the finer aggregates composed of diffuse plaques; also recorded: highlights mostly dense core Aβ plaques
452	582	0.0668	165 ± 7.1	97.6 ± 5.7	97.6 ± 5.7	1.7	0.0063	397	565	435	585	0.1377				CN(C)c1ccc(/C=C/C=C2\CCc3ccccc3C2=O)cc1 [compound 24, (E)-2-((E)-3-(4-(Dimethylamino)phenyl)allylidene)-3,4-dihydronaphthalen-1(2H)-one]			
447	587	0.0763	144 ± 13	85.1 ± 13.4	85.1 ± 13.4	1.7	0.0051	401	549	454	584	0.1890				COc1cc(/C=C/C=C2\CCc3ccccc3C2=O)ccc1O [compound 23, (E)-2-((E)-3-(4-Hydroxy-3-methoxyphenyl)allylidene)-3,4-dihydronaphthalen-1(2H)-one]			
448	586	0.1125	491 ± 58.9		18.8 ± 4		0.0104	392	563	443	583	0.2498	579 ± 30.6	30.8	greater than 10 x	O=C(O)c1ccc(-c2ccc(/C=C/C=C3\Cc4ccc(O)cc4C3=O)cc2)cc1 [compound 32, 4'-((E)-3-((E)-6-Hydroxy-1-oxo-1,3-dihydro-2H-inden-2-ylidene)prop-1-en-1-yl)-[1,1'-biphenyl]-4-carboxylic acid]			
465	572	0.0596	250 ± 37.1	92.9 ± 6.3	92.9 ± 6.3	2.7	0.0050	387	547	478	581	0.1130				COc1ncc(-c2ccc(/C=C3/Cc4ccccc4C3=O)s2)c(OC)n1 [compound 42, (Z)-2-((5-(2,4-Dimethoxypyrimidin-5-yl)thiophen-2-yl)methylene)-2,3-dihydro-1H-inden-1-one]			
428	583	0.0766	52.5 ± 3.1	66.7 ± 2		0.8	0.0052	397	551	424	574	0.1543				COc1cc(-c2ccc(/C=C/C=C3\Cc4ccccc4C3=O)cc2)ccc1O [compound 29, (E)-2-((E)-3-(4'-Hydroxy-3'-methoxy-[1,1'-biphenyl]-4-yl)allylidene)-2,3-dihydro-1H-inden-1-one]			
440	603	0.0482	154 ± 11.8	44.5 ± 6.1	44.5 ± 6.1	3.5	0.0061	402	572	438	598	0.1419				COc1cc(/C=C/C=C2C(=O)c3ccccc3C2=O)ccc1O [compound 20, (E)-2-(3-(4-Hydroxy-3-methoxyphenyl)allylidene)-1H-indene-1,3(2H)-dione]			
				126 ± 5				368	540							O=C1/C(=C/C=C/c2ccc(-c3ccc(CO)cc3)cc2)Cc2ccc(O)cc21 [compound 31, (E)-6-Hydroxy-2-((E)-3-(4'-(hydroxymethyl)-[1,1'-biphenyl]-4-yl)allylidene)-2,3-dihydro-1H-inden-1-one]			
				162 ± 13.6				372	551							O=C1/C(=C\c2ccc(-c3ccc(CO)cc3)s2)CCc2ccccc21 [compound 49, (Z)-2-((5-(4-(Hydroxymethyl)phenyl)thiophen-2-yl)methylene)-3,4-dihydronaphthalen-1(2H)-one]			
462	610	0.0805	157 ± 5	38.4 ± 1.3	38.4 ± 1.3	4.1	0.0059	450	589	460	609	0.1465				CN(C)c1ccc(/C=C/C=C2\Cc3ccccc3C2=O)cc1 [compound 9, (E)-2-((E)-3-(4-(Dimethylamino)phenyl)allylidene)-2,3-dihydro-1H-inden-1-one]			
